Source: ChEMBL document CHEMBL1201862, “PubChem BioAssay data set” (2004)
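The compound was tested at five concentrations on cells cultured in 96-well plates, with a 48-hour exposure period. GI50 = concentration required for 50% inhibition of growth.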 The source made the active and inactive calls. Cut-off read from the data, not from the text of the source: active = GI50 up to about 1.1 µM and inactive = higher. Where a SMILES comes first, the peptide text is derived from it. The star is where a group is joined. Boc = CC(C)(C)OC(=O)*

Legend:
Assay in all cases: NCI-60 cell line screen, 48 h
[1] = tested on: A498
[2] = tested on: BT-549
[3] = tested on: CAKI-1
[4] = tested on: CCRF-CEM
[5] = tested on: HOP-92
[6] = tested on: HT-29
[7] = tested on: KM12
[8] = tested on: MCF7
[9] = tested on: MDA-MB-231
[10] = tested on: MDA-MB-435
[11] = tested on: MDA-N
[12] = tested on: PC-3
[13] = tested on: SK-MEL-28
[14] = tested on: SK-OV-3
[15] = tested on: SN12C
[16] = tested on: SNB-19
[17] = tested on: SNB-75
[18] = tested on: T47D
[19] = tested on: TK-10
[20] = tested on: UO-31

| SMILES | GI50 [1] | GI50 [2] | GI50 [3] | GI50 [4] | GI50 [5] | GI50 [6] | GI50 [7] | GI50 [8] | GI50 [9] | GI50 [10] | GI50 [11] | GI50 [12] | GI50 [13] | GI50 [14] | GI50 [15] | GI50 [16] | GI50 [17] | GI50 [18] | GI50 [19] | GI50 [20] |
| --- | --- | --- | --- | --- | --- | --- | --- | --- | --- | --- | --- | --- | --- | --- | --- | --- | --- | --- | --- | --- |
| O=C(O)CSc1ncccc1[N+](=O)[O-] | > 100 µM (inactive) | > 100 µM (inactive) | > 100 µM (inactive) | > 100 µM (inactive) | > 100 µM (inactive) | > 100 µM (inactive) | > 100 µM (inactive) | > 100 µM (inactive) | > 100 µM (inactive) | > 100 µM (inactive) | > 100 µM (inactive) | > 100 µM (inactive) | > 100 µM (inactive) | > 100 µM (inactive) | > 100 µM (inactive) | > 100 µM (inactive) | > 100 µM (inactive) | > 100 µM (inactive) | > 100 µM (inactive) | > 100 µM (inactive) |
| CC(C)(C)c1ccc2c(c1)C#Cc1cc3c(cc1OCCCO2)C#Cc1cc(C(C)(C)C)ccc1OCCCO3 | > 100 µM (inactive) | 1.72 µM (inactive) | > 100 µM (inactive) | 42.4 µM (inactive) | > 100 µM (inactive) | > 100 µM (inactive) | > 100 µM (inactive) | > 100 µM (inactive) | > 100 µM (inactive) | > 100 µM (inactive) | > 100 µM (inactive) | > 100 µM (inactive) | > 100 µM (inactive) | > 100 µM (inactive) | > 100 µM (inactive) | > 100 µM (inactive) | – | > 100 µM (inactive) | > 100 µM (inactive) | – |
| CCCCCCSc1nc(COC(=O)NC)c(COC(=O)NC)n1C | > 100 µM (inactive) | > 100 µM (inactive) | > 100 µM (inactive) | > 100 µM (inactive) | – | > 100 µM (inactive) | > 100 µM (inactive) | > 100 µM (inactive) | > 100 µM (inactive) | > 100 µM (inactive) | > 100 µM (inactive) | > 100 µM (inactive) | > 100 µM (inactive) | > 100 µM (inactive) | > 100 µM (inactive) | > 100 µM (inactive) | > 100 µM (inactive) | > 100 µM (inactive) | > 100 µM (inactive) | > 100 µM (inactive) |
| COc1cc(/C=C2\C(=O)N(Cc3ccccc3)C(c3ccccc3)S2(=O)=O)cc(OC)c1OC (stereo unspecified) | 21.4 µM (inactive) | 36.3 µM (inactive) | > 100 µM (inactive) | 36.5 µM (inactive) | 50.2 µM (inactive) | 51.6 µM (inactive) | 34.7 µM (inactive) | 26.3 µM (inactive) | > 100 µM (inactive) | 41.9 µM (inactive) | 61.8 µM (inactive) | 43 µM (inactive) | 93.8 µM (inactive) | > 100 µM (inactive) | 74 µM (inactive) | > 100 µM (inactive) | – | 29.2 µM (inactive) | 36.1 µM (inactive) | 21.8 µM (inactive) |
| CCN1CCC(O)(c2ccc(Oc3ccccc3)cc2)C(C(=O)c2ccc(Oc3ccccc3)cc2)C1 (stereo unspecified) | 14 µM (inactive) | 10.5 µM (inactive) | 16.4 µM (inactive) | 5.81 µM (inactive) | 8.87 µM (inactive) | 6.98 µM (inactive) | 4.85 µM (inactive) | 3.63 µM (inactive) | 14.6 µM (inactive) | 12.9 µM (inactive) | 13.8 µM (inactive) | 13 µM (inactive) | 13.6 µM (inactive) | – | 15.3 µM (inactive) | 14.6 µM (inactive) | 14.5 µM (inactive) | 11.6 µM (inactive) | 13.7 µM (inactive) | 7.94 µM (inactive) |
| CC(C#N)Nc1ccc(Oc2ccc(C(C)(C)c3ccc(Oc4ccc(NC(C)C#N)cc4)cc3)cc2)cc1 (stereo unspecified) | > 100 µM (inactive) | > 100 µM (inactive) | > 100 µM (inactive) | – | 31.4 µM (inactive) | > 100 µM (inactive) | > 100 µM (inactive) | 6.25 µM (inactive) | > 100 µM (inactive) | > 100 µM (inactive) | > 100 µM (inactive) | 79.4 µM (inactive) | > 100 µM (inactive) | > 100 µM (inactive) | > 100 µM (inactive) | > 100 µM (inactive) | 92.5 µM (inactive) | 0.409 µM (active) | > 100 µM (inactive) | 5.08 µM (inactive) |
| COc1ccc(C(OC(=O)[C@H](O[Si](C)(C)C(C)(C)C)[C@@H](NC(=O)c2ccccc2)c2ccccc2)c2ccc(OC)cc2)cc1 | > 100 µM (inactive) | > 100 µM (inactive) | > 100 µM (inactive) | > 100 µM (inactive) | > 100 µM (inactive) | > 100 µM (inactive) | > 100 µM (inactive) | 65 µM (inactive) | 48.3 µM (inactive) | > 100 µM (inactive) | > 100 µM (inactive) | > 100 µM (inactive) | – | – | > 100 µM (inactive) | > 100 µM (inactive) | > 100 µM (inactive) | > 100 µM (inactive) | > 100 µM (inactive) | > 100 µM (inactive) |
| O=C(N[C@H]1CCC[C@H]1C(=O)Nc1ccc(C(F)(F)F)cc1)OCc1ccccc1 | > 100 µM (inactive) | > 100 µM (inactive) | > 100 µM (inactive) | > 100 µM (inactive) | > 100 µM (inactive) | > 100 µM (inactive) | > 100 µM (inactive) | > 100 µM (inactive) | > 100 µM (inactive) | > 100 µM (inactive) | > 100 µM (inactive) | > 100 µM (inactive) | > 100 µM (inactive) | > 100 µM (inactive) | > 100 µM (inactive) | > 100 µM (inactive) | – | > 100 µM (inactive) | > 100 µM (inactive) | > 100 µM (inactive) |
| Oc1c2cc(Br)cc1CCc1cc(Br)cc(c1O)CC2 | 31.8 µM (inactive) | 22.6 µM (inactive) | 36 µM (inactive) | 18.2 µM (inactive) | – | 15.6 µM (inactive) | 17.3 µM (inactive) | 22.3 µM (inactive) | 14 µM (inactive) | 29.2 µM (inactive) | 30.1 µM (inactive) | 14.8 µM (inactive) | 27 µM (inactive) | 20.8 µM (inactive) | 41.9 µM (inactive) | 31 µM (inactive) | 21.6 µM (inactive) | 38.8 µM (inactive) | 31.6 µM (inactive) | 12.8 µM (inactive) |
| CN(C)CCCNC(=O)c1cc2/c(=C\c3ccc(N(C)C)cc3)c3ccccc3n2[n+]1C | 6.04 µM (inactive) | 63.7 µM (inactive) | > 100 µM (inactive) | 35.1 µM (inactive) | 22.9 µM (inactive) | 27.5 µM (inactive) | 24.7 µM (inactive) | 21.8 µM (inactive) | 21.5 µM (inactive) | 24.9 µM (inactive) | 24.4 µM (inactive) | 39.5 µM (inactive) | 30.8 µM (inactive) | > 100 µM (inactive) | 1.58 µM (inactive) | 24.8 µM (inactive) | – | 1.45 µM (inactive) | 90.6 µM (inactive) | > 100 µM (inactive) |
| CN(C)N1C(=O)c2ccccc2NC1c1ccccc1 (stereo unspecified) | > 100 µM (inactive) | > 100 µM (inactive) | > 100 µM (inactive) | > 100 µM (inactive) | > 100 µM (inactive) | > 100 µM (inactive) | > 100 µM (inactive) | > 100 µM (inactive) | > 100 µM (inactive) | > 100 µM (inactive) | > 100 µM (inactive) | > 100 µM (inactive) | > 100 µM (inactive) | > 100 µM (inactive) | > 100 µM (inactive) | > 100 µM (inactive) | > 100 µM (inactive) | > 100 µM (inactive) | > 100 µM (inactive) | > 100 µM (inactive) |
| N#CC1=C(S)N(C2OC(CO)C(O)C(O)C2O)C(c2ccccc2)=CC1c1cccs1 (stereo unspecified) | > 10 µM (inactive) | 16.1 µM (inactive) | 23.1 µM (inactive) | 22.3 µM (inactive) | 23.3 µM (inactive) | 17 µM (inactive) | 18.8 µM (inactive) | 15.3 µM (inactive) | 27.2 µM (inactive) | 20.3 µM (inactive) | 15.4 µM (inactive) | 15.1 µM (inactive) | 21.1 µM (inactive) | – | 14.7 µM (inactive) | > 10 µM (inactive) | 20.5 µM (inactive) | 19.2 µM (inactive) | 29 µM (inactive) | 48.8 µM (inactive) |
| COc1ccc(/C=C2\CCCCCC2=O)cc1 | > 100 µM (inactive) | > 100 µM (inactive) | > 100 µM (inactive) | > 100 µM (inactive) | > 100 µM (inactive) | > 100 µM (inactive) | > 100 µM (inactive) | > 100 µM (inactive) | > 100 µM (inactive) | > 100 µM (inactive) | > 100 µM (inactive) | > 100 µM (inactive) | > 100 µM (inactive) | > 100 µM (inactive) | > 100 µM (inactive) | > 100 µM (inactive) | – | > 100 µM (inactive) | > 100 µM (inactive) | > 100 µM (inactive) |
| COC(=O)CNC(=O)C(Cc1ccccc1)NC(=O)C(CCSC)NC(=O)C(Cc1ccc(O)cc1)NC(=O)OC(C)(C)C (stereo unspecified) (Boc-YMFG-OMe; configuration not given here) | > 100 µM (inactive) | 35.3 µM (inactive) | > 100 µM (inactive) | – | 26.4 µM (inactive) | 33 µM (inactive) | > 100 µM (inactive) | 41.8 µM (inactive) | 24.5 µM (inactive) | > 100 µM (inactive) | 33.3 µM (inactive) | > 100 µM (inactive) | 18.2 µM (inactive) | > 100 µM (inactive) | 45.3 µM (inactive) | 37.8 µM (inactive) | > 100 µM (inactive) | 32.4 µM (inactive) | > 100 µM (inactive) | > 100 µM (inactive) |
